Source: patent publication US7041815B2, “Sporamin promoter and uses thereof” (Sinon Corporation, priority 2001, dated 2006)

Legend:
Type in all cases: in vivo, Nicotiana tabaccum cv. W38
[1] = tested on: sporamin promoter fused to the GUS reporter gene; test: Pspoa-GUS activity in response to elicitors sprayed onto leaves (fluorometric GUS assay); details: for effect on the sporamin promoter function (in words): treatment alone
Description: The plasmid was transformed into tobacco cells (Nicotiana tabaccum cv. W38) using Agrobacterium tumefaciens LBA4404 in the leaf disc method (Hörsch et al. (1985). Science 227:1229–1231). […] Two lines, Tspoa11 and Tspoa37 were selected for further analysis. GUS activity was measured in the leaves of plants obtained from these lines as follows. A middle leaf of the mature tobacco plant was injured with a scissors. Two hours later, wounded and unwounded leaves were harvested, mixed with GUS extraction buffer (50 mM sodium phosphate, pH 7.0, 10 mM EDTA, 10 mM β-mercaptoethanol, 0.1% sodium lauryl sarcosine, 0.1% Triton X-100), frozen, and grounded into a fine powder with a mortar and pestle while in liquid nitrogen. The sample was thawed and centrifuged at 12,000×g for 10 minutes at 4° C. The total protein content was determined using the method of Bradford ((1976) Anal. Biochem. 72:248–254). GUS activity was measured in a fluorometric assay by the addition of 4-methylumbelliferyl-β-D-glucuronide substrate and monitoring the reaction in a […] to determine […] of activity following the method of Jefferson ((1987) EMBO J 6:3901–3908).
The activity the Pspoa-GUS fusion was monitored in response to spraying with the elicitor, methyl jasmonate. Solutions of 50 μM and 100 μM methyl jasmonate were prepared and sprayed onto leaves using a commercial atomizer. Sodium phosphate buffer, pH 7.0, was used as a control solution.
The activity of the sporamin promoter fused to the GUS reporter gene was monitored in response to abscisic acid (ABA). Solutions of 100 μM and 200 μM ABA were prepared and sprayed onto leaves using a commercial atomizer.

[2] = tested on: sporamin promoter fused to the GUS reporter gene; test: as above; details: 1 mM sprayed onto leaves of Pspoa-GUS tobacco
GUS reporter gene = test: Pspoa-GUS activity in response to leaf wounding (fluorometric GUS assay)
From the text: To analyze the properties of the sporamin promoter, the promoter was operably linked to the reporter gene β-glucuronidase (GUS). The plasmid pBI101 is a Ti plasmid binary vector harboring the GUS gene in a form lacking a promoter (Clontech, Palo Alto Calif.). The sporamin promoter was excised with the restriction endonucleases XbaI and BamHI, isolated, and ligated into compatible sites of a restricted pBI101 nucleic acid. The resulting plasmid construct, termed pBI101/Pspoa, was verified by restriction mapping and nucleic acid sequencing.
Two lines, Tspoa11 and Tspoa37 were selected for further analysis. GUS activity was measured in the leaves of plants obtained from these lines as follows. A middle leaf of the mature tobacco plant was injured with a scissors. Two hours later, wounded and unwounded leaves were harvested, mixed with GUS extraction buffer (50 mM sodium phosphate, pH 7.0, 10 mM EDTA, 10 mM β-mercaptoethanol, 0.1% sodium lauryl sarcosine, 0.1% Triton X-100), frozen, and grounded into a fine powder with a mortar and pestle while in liquid nitrogen. The sample was thawed and centrifuged at 12,000×g for 10 minutes at 4° C.
GUS activity was monitored as described above at various intervals after leaf wounding.

[3] = 100 μM sprayed onto leaves of Pspoa-GUS tobacco
[4] = 200 μM sprayed onto leaves of Pspoa-GUS tobacco

Molecule: CC1=CC(=O)CC(C)(C)[C@@]1(O)/C=C/C(C)=C\C(=O)O [ABA, abscisic acid]
- GUS activity [1, 3]: 170 nmole MU/min/mg protein
- induction of the sporamin promoter (in words) ([1]; 100 μM, fluorometric assay): potent inducer
- GUS activity [1, 4]: 60 nmole MU/min/mg protein

Molecule: O=C(O)c1ccccc1O [SA, salicylic acid]
- GUS activity [1, 4]: 15 nmole MU/min/mg protein
- sporamin promoter activity when treatment precedes wounding or methyl jasmonate treatment (in words) ([1]; pre-treatment before wounding / methyl jasmonate): less sporamin promoter activity was observed
- effect on the sporamin promoter function (in words) [1]: no effect
- GUS activity [2]: 21 nmole MU/min/mg protein

Molecule: C=C [ethylene]
- effect on the sporamin promoter function (in words) [1]: no effect

Molecule: CC/C=C\CC1C(=O)CCC1CC(=O)OC (stereo not shown) [methyl jasmonate]
- GUS activity ([1]; 50 μM sprayed onto leaves of Pspoa-GUS tobacco): 420 nmole MU/min/mg protein
- GUS activity [1, 3]: 225 nmole MU/min/mg protein
- GUS activity increase ([1]; two hours after spraying with 50 μM): 37 fold
- GUS activity increase ([1]; two hours after spraying with 100 μM): 20 fold

B1: sporamin promoter: 1.25 kb sweet potato (Ipomoea batatas) sporamin promoter sequence, SEQ ID NO:1 (nucleic acid)
DNA: CGACGGCCCGGGCTAGGTCAAGTAACCCGAACTTGGTCAAGTTTGTTATAACTTATTCTCCCTTTTTCGTGAGGGCGGTTAGGGGACTTAGTATAAATAGGAGTGTAATCGGGCTTGTTAAGACATATTGAACTCACCTGTAATAGCATTACATTTCTCGTAAATACGTACAATATCCTTGTCTTTCCAATAACATTTTTGTCTTTTACCATTATCTTTTATCCAATCCTTTAATTATCGAGTTTGTTAATTCAGATCACCCAAATTAATTAAATCCATCATTTGGATTAAGTTATCTTACTTTACTAATTAGAGTTTTTATCTTCAGAGGAAGGAAGAAGAAAATTAATTGACATGACTCTCATCGGGTTGCACTCCACCCATTATGTTATACAATGCAAACTCTTTTAAAATAAATTAAAATTATATATATATATAATAGTGCAACCTACATCACTTTTTCAATGTGGGACGAAAGCACCTTCAAAAGTCTTTCGAACCCCATTTTTCCTCGAATATATTTTGAGAATCAATTTCTCAATTAATCATTATTATCCATCTTCGTGTACATATATAATATATATATCACATTAAACATCTAACTTAGAAGAACTCAAATTTATTTTTAACTCTACTTATATCAAAAGTGGACTCTACTGAAAATTATACCACAAAATGATATTTTAAACGTTATATTTAACAAAAATTTCTGACATTATCTTATTTAATCTTCTACTAGTTAGAATAATAAAACAAATTTCACTCATAACATAAATTTAAATAGTGATCGTGAATTTTTACGGAAATTAATCAAATAATTGTATGTAATAATGTAATGTAATGAATTTTGATGATGGGTAAAATGTATTTTAATTATTACACGACTTGCCTTCTTTAATTTGTTCTTAGGATCCTAGACTTCATCCCTGCATAGCAAAACCATTGGACACTTGGACGGCCACAAATCATTTCTATTTTCTCCCAACTCCTCCTGTCAGCATGGGATCATTATCAACTTTATCTCATCCCATTACACACCGTAAGTGTACCATCCATCGCTCAATCACTGTATACTTAAATCTCCAGATTAAGTCACTAAATAACTGTGTTGGACTGTGAAAACTTTGAGTAAAAAAAGGCAAAATACTCTTAAAACTGTACAAAAAACAATAATTCAACCCTTACTCTTGTTGTCTATAAATTGGATGCATGAGAGCTCAACACAACACAACACCACCAACAAATTAAACATCATTACCTCTTAGCTTTTCTCCCAAGTTGTC
modifications: Ipomoea batatas
- time GUS expression remained above 250 nmole MU/min/mg after wounding (GUS reporter gene; leaf wounding): at least 50 hours
- time to induction of GUS expression after wounding (GUS reporter gene; leaf wounding): ≤ 15 min
- maximum GUS expression level over the uninduced (unwounded) level (GUS reporter gene; maximum at 12 hours after wounding): 16 fold
- level of GUS expression after leaf wounding (GUS reporter gene; within 2 hours of wounding): over 250 nmole MU/min/mg of protein
